# Earlier results as cited in patent publication US20140057987A1, “Disinfectant Spray with Indicator” (GENESIS LABORATORIES, INC., priority 2010, published 2014).
# Details: colour change of indicator
row,Molecule,Transition pH range
1,Cc1cc(C2(c3ccc(O)c(C)c3)OS(=O)(=O)c3ccccc32)ccc1O [Cresol Red],7.2-8.8 pH
2,Cc1cc(O)c(C(C)C)cc1C1(c2cc(C(C)C)c(O)cc2C)OC(=O)c2ccccc21 [Thymolphthalein],9.3-10.5 pH
3,Cc1c(C2(c3cc(C(C)C)c(O)c(Br)c3C)OS(=O)(=O)c3ccccc32)cc(C(C)C)c(O)c1Br [Bromothymol blue],6.0-7.6 pH
4,O=C(O)c1cc(N=Nc2ccc([N+](=O)[O-])cc2)ccc1O [Alizarine Yellow R],10.2-12.0 pH
5,Azolitmin,4.5-8.3 pH
6,CN(C)c1ccc(N=Nc2ccccc2)cc1 [Methyl yellow],2.9-4.0 pH
7,O=C1OC(c2ccc(O)c3ccccc23)(c2ccc(O)c3ccccc23)c2ccccc21 [Naphtholphthalein],7.3-8.7 pH
8,Cc1cc(C2(c3cc(C)c(O)c(Br)c3)OS(=O)(=O)c3ccccc32)cc(Br)c1O [Bromocresol purple],5.2-6.8 pH
9,O=C1OC(c2ccc(O)cc2)(c2ccc(O)cc2)c2ccccc21 [Phenolphthalein],8.3-10.0 pH
10,Cc1c(C2(c3cc(Br)c(O)c(Br)c3C)OS(=O)(=O)c3ccccc32)cc(Br)c(O)c1Br [Bromocresol green],3.8-5.4 pH
11,"CN(C)c1ccc(C(=C2C=CC(=[N+](C)C)C=C2)c2ccc(N(C)C)cc2)cc1 [Gentian violet(Methyl violet 10B), Gentian violet]",0.0-2.0 pH
12,O=S1(=O)OC(c2cc(Br)c(O)c(Br)c2)(c2cc(Br)c(O)c(Br)c2)c2ccccc21 [Bromophenol blue],3.0-4.6 pH
13,CN(C)c1ccc(N=Nc2ccc(S(=O)(=O)[O-])cc2)cc1.[Na+] [Methyl orange],3.1-4.4 pH
14,Cc1cc2nc3ccc(N(C)C)cc3nc2cc1N.Cl [Neutral red],6.8-8.0 pH
15,Nc1c(/N=N/c2ccc(-c3ccc(/N=N/c4cc(S(=O)(=O)O)c5ccccc5c4N)cc3)cc2)cc(S(=O)(=O)O)c2ccccc12 [Congo red],3.0-5.0 pH

# Same assay, conditions: colour change of indicator; high pH color green
row,Molecule,Transition pH range
1,CN(C)c1ccc(/N=N/c2ccccc2C(=O)O)cc1 [Methyl red],4.5-5.2 pH

# Same assay, conditions: colour change of indicator; high pH color yellow
row,Molecule,Transition pH range
1,CN(C)c1ccc(/N=N/c2ccccc2C(=O)O)cc1 [Methyl red],4.4-6.2 pH

# Same assay, conditions: first transition
row,Molecule,Transition pH range
1,CN(C)c1ccc(C(c2ccccc2)c2ccc(N(C)C)cc2)cc1 [Leucomalachite green],0.0-2.0 pH
2,Cc1cc(O)c(C(C)C)cc1C1(c2cc(C(C)C)c(O)cc2C)OS(=O)(=O)c2ccccc21 [Thymol blue],1.2-2.8 pH

# Same assay, conditions: second transition
row,Molecule,Transition pH range
1,CN(C)c1ccc(C(c2ccccc2)c2ccc(N(C)C)cc2)cc1 [Leucomalachite green],11.6-14.0 pH
2,Cc1cc(O)c(C(C)C)cc1C1(c2cc(C(C)C)c(O)cc2C)OS(=O)(=O)c2ccccc21 [Thymol blue],8.0-9.6 pH
